Measurements reported in patent US11046691B1 (IDEAYA BIOSCIENCES, INC., priority 2018, dated 2021).

Biological target: hMAT2A (Homo sapiens (Human), UniProt P31153)
Experiment: Malachite Green Assay (MAT2A enzyme inhibition)
Assay type: biochemical
Settings: hMAT2A 50 nM, substrates 500 uM each, 1 hour
Procedure: The ability of the compound of present disclosure to inhibit MAT2A enzyme was determined using the Malachite Green or Phosphate Sensor Fluorescence Assay described below.
L-methionine Substrate: Alfa Aesar catalog #J61904
ATP Substrate: Alfa Aesar cat #J60336
Malachite Green Detection Reagent: Millipore Sigma catalog #MAK307-1KT
Assay buffer: 50 mM Tris, pH 7.5/50 mM KCl/10 mM MgCl2/0.01% Brij-35/1 mM DTT/0.1% BGG
The plate was centrifuged at 1000 rpm for 1 minute and then incubated at room temperature for 1 hour. 5 μL of malachite green detection reagent was added to all the test wells and the plate was centrifuged at 1000 rpm for 1 minute and then incubated at room temperature for 30 minutes. The plate was read for absorbance at 620 nm on a plate reader (e.g., Infinite M1000).

hMAT2A, sequence (P31153 whole entry): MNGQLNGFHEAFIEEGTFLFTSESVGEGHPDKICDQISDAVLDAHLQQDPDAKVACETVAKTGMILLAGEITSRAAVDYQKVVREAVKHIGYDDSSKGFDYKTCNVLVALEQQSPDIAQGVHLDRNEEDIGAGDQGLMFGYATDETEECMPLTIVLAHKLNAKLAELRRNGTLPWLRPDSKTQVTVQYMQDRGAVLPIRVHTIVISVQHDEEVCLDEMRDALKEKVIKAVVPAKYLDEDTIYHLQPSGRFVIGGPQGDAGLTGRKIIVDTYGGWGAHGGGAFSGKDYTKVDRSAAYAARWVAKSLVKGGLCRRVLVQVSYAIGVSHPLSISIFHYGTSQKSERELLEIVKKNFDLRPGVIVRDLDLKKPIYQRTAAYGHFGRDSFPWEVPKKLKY

Row | IC50 [nM] | Compound
1 | < 200 | CN(C)c1nc(=O)n(-c2ccccc2)c2cc(F)ccc12 [Example 35, 4-(dimethylamino)-7-fluoro-1-phenyl-quinazolin-2(1H)-one]
2 | < 200 | CN(C)c1nc(=O)n(-c2ccc(F)cc2)c2cc(Cl)ccc12 [Example 36, 4-(dimethylamino)-7-chloro-1-(4-fluorophenyl)-hydroquinazolin-2-one]
3 | < 200 | CN(C)c1nc(=O)n(-c2cc(O)cc(F)c2)c2cc(Cl)ccc12 [Example 37, 4-(dimethylamino)-7-chloro-1-(5-fluoro-3-hydroxyphenyl)hydro-quinazolin-2-one]
4 | < 200 | O=c1nc(N2CCC2)c2ccc(Cl)cc2n1-c1cc(O)cc(F)c1 [Example 38, 4-azetidinyl-7-chloro-1-(5-fluoro-3-hydroxy-phenyl)hydroquinazolin-2-one]
5 | < 200 | CN(c1nc(=O)n(-c2cccc(F)c2)c2cc(Cl)ccc12)C1CC1 [Example 39, 7-chloro-4-(cyclopropylmethylamino)-1-(3-fluorophenyl)hydroquinazolin-2-one]
6 | 200 to 500 | CN(C)c1nc(=O)n(-c2ccccc2)c2c(Cl)c(Cl)ccc12 [Example 42, 7,8-dichloro-4-(dimethylamino)-1-phenylquinazolin-2(1H)-one]
7 | 1000 to 10000 | Cc1c(Cl)ccc2c(N(C)C)nc(=O)n(-c3ccccc3)c12 [Example 43, 7-chloro-4-(dimethylamino)-8-methyl-1-phenyl-quinazolin-2(1H)-one]
8 | < 200 | CNc1nc(=O)n(-c2ccccc2)c2cc(C)ccc12 [Example 44, 7-methyl-4-(methylamino)-1-phenyl-quinazolin-2(1H)-one]
9 | < 200 | CNc1nc(=O)n(-c2ccccc2)c2cc(C3CC3)ccc12 [Example 45, 7-cyclopropyl-4-(methylamino)-1-phenylquinazolin-2(1H)-one]
10 | < 200 | CNc1nc(=O)n(-c2cccc(O)c2)c2cc(Cl)ccc12 [Example 46, 7-chloro-1-(3-hydroxyphenyl)-4-(methylamino)-hydroquinazolin-2-one]
11 | < 200 | CNc1nc(=O)n(-c2cccc(CCO)c2)c2cc(Cl)ccc12 [Example 47, 7-chloro-1-[3-(2-hydroxyethyl)phenyl]-4-(methylamino)-hydroquinazolin-2-one]
12 | < 200 | CNc1nc(=O)n(-c2cccc(CCCO)c2)c2cc(Cl)ccc12 [Example 48, 7-chloro-1-[3-(3-hydroxypropyl)-phenyl]-4-(methylamino)hydro-quinazolin-2-one]
13 | < 200 | CNc1nc(=O)n(-c2ccccc2)c2cc(OC)ccc12 [Example 49, 7-methoxy-4-(methylamino)-1-phenyl-quinazolin-2(1H)-one]
14 | < 200 | CNc1nc(=O)n(-c2ccccc2)c2cc(C#N)ccc12 [Example 50, 4-(methylamino)-2-oxo-1-phenyl-1,2-dihydro-quinazoline-7-carbonitrile]
15 | < 200 | CNc1nc(=O)n(-c2ccccc2)c2cc(C(F)(F)F)ccc12 [Example 51, 4-(methylamino)-1-phenyl-7-(trifluoro-methyl)-quinazolin-2(1H)-one]
16 | < 200 | CN(C)c1nc(=O)n(-c2cccc(NS(C)(=O)=O)c2)c2cc(Cl)ccc12 [Example 52, N-(3-(7-chloro-4-(dimethylamino)-2-oxoquinazolin-1 (2H)-yl)phenyl)-methanesulfonamide]
17 | < 200 | CN(C)c1nc(=O)n(-c2cccc(O)c2)c2cc(Cl)ccc12 [Example 54]
18 | < 200 | CNc1nc(=O)n(-c2cccc(C)c2)c2cc(Cl)ccc12 [Example 55]

Row | IC50 [nM] | Compound
19 | < 200 | CNc1nc(=O)n(-c2cccc(Cl)c2)c2cc(Cl)ccc12 [Example 56, 7-Chloro-1-(3-chlorophenyl)-4-(methylamino)hydroquinazolin-2-one]
20 | < 200 | CNc1nc(=O)n(-c2ccccc2F)c2cc(Cl)ccc12 [Example 57, 7-chloro-1-(2-fluorophenyl)-4-(methylamino)quinazolin-2(1H)-one]
21 | < 200 | Nc1nc(=O)n(-c2ccccc2)c2cc(Cl)ccc12 [Example 59, 4-amino-7-chloro-1-phenylquinazolin-2(1H)-one]
22 | < 200 | CN(C)c1nc(=O)n(-c2cccc(Br)c2)c2cc(Cl)ccc12 [Example 60, 1-(3-bromophenyl)-7-chloro-4-(dimethylamino)quinazolin-2(1H)-one]
23 | < 200 | CNc1nc(=O)n(-c2cccc(F)c2)c2cc(Cl)ccc12 [Example 61, 7-chloro-1-(3-fluorophenyl)-4-(methylamino)quinazolin-2(1H)-one]
24 | 200 to 500 | COc1nc(=O)n(-c2ccccc2)c2cc(Cl)ccc12 [Example 62, 7-chloro-4-methoxy-1-phenyl-quinazolin-2(1H)-one]
25 | 1000 to 10000 | CN(C)CCN(C)c1nc(=O)n(-c2ccccc2)c2cc(Cl)ccc12 [Example 63, 7-chloro-4-((2-(dimethylamino)ethyl)-(methyl)-amino)-1-phenylquinazolin-2(1H)-one]
26 | 1000 to 10000 | CN(C)CCNc1nc(=O)n(-c2ccccc2)c2cc(Cl)ccc12 [Example 64, 7-chloro-4-((2-(dimethylamino)ethyl)-amino)-1-phenylquinazolin-2(1H)-one]
27 | < 200 | O=c1nc(N2CCCCC2)c2ccc(Cl)cc2n1-c1ccccc1 [Example 66, 7-chloro-1-phenyl-4-(piperidin-1-yl)-quinazolin-2(1H)-one]
28 | < 200 | O=c1nc(N2CCCC2)c2ccc(Cl)cc2n1-c1ccccc1 [Example 67, 7-chloro-1-phenyl-4-(pyrrolidin-1-yl)-quinazolin-2(1H)-one]
29 | < 200 | CNc1nc(=O)n(-c2ccccc2)c2cc(Cl)cc(OC)c12 [Example 70, 7-chloro-5-methoxy-4-(methylamino)-1-phenylquinazolin-2(1H)-one]
30 | < 200 | CNc1nc(=O)n(-c2ccccc2)c2cc(Cl)c(OC)cc12 [Example 73, 7-chloro-6-methoxy-4-(methylamino)-1-phenylquinazolin-2(1H)-one]
31 | < 200 | O=c1nc(N2CC(O)C2)c2ccc(Cl)cc2n1-c1ccccc1 [Example 74, 7-chloro-4-(3-hydroxyazetidin-1-yl)-1-phenylquinazolin-2(1H)-one]
32 | < 200 | CN(C)c1nc(=O)n(-c2cccc(CCOc3ccccc3)c2)c2cc(Cl)ccc12 [Example 75, 7-chloro-4-(dimethylamino)-1-(3-(2-phenoxyethyl)phenyl)quinazolin-2(1H)-one]
33 | < 200 | COc1cccc(-n2c(=O)nc(N(C)C)c3ccc(Cl)cc32)c1 [Example 76]
34 | < 200 | CN(C)c1nc(=O)n(-c2cccc(CO)c2)c2cc(Cl)ccc12 [Example 77]
35 | < 200 | CN(C)c1nc(=O)n(-c2cccc(C#N)c2)c2cc(Cl)ccc12 [Example 81, 3-[4-(dimethylamino)-7-chloro-2-oxohydroquinazolinyl]benzenecarbo-nitrile]
36 | < 200 | N#CC1CN(c2nc(=O)n(-c3cccc(F)c3)c3cc(Cl)ccc23)C1 [Example 82, 1-(7-chloro-1-(3-fluorophenyl)-2-oxo-1,2-dihydroquinazolin-4-yl)azetidine-3-carbonitrile]
